The source of these data is patent publication US5466698A, “Substituted tetrahydrophyridines and hydroxypiperidines as central nervous system agents” (Warner-Lambert Company, priority 1993, dated 1995).

By IC50 is commonly meant the concentration that inhibits the measured activity by half. As usually defined, the ED50 is the midpoint of the dose-response relation. Low readings indicate an effect at a small dose, high ones a need for a large dose. The term inhibition in vivo denotes the relative decrease from the control value, in per cent.

The target of assay [1] is [^3 H]Spiroperidol Binding (Rattus norvegicus, UniProt P61169). The assay is described as follows: Inhibition of [^3 H]Spiroperidol Binding, receptor assay.
[^3 H]Spiroperidol Binding, sequence (P61169 whole entry): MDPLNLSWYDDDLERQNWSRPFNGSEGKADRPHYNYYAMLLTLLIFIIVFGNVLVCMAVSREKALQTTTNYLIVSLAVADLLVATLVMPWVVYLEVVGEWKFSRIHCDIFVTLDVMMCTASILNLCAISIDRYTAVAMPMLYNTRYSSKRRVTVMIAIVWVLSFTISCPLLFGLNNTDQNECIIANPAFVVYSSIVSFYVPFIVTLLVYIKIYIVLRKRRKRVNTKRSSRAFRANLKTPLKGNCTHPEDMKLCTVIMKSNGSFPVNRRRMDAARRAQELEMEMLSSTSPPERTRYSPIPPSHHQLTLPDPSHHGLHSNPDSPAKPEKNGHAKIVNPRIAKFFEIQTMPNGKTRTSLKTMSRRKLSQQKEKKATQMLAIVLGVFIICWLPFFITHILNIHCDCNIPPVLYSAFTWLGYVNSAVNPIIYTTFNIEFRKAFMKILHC
For assay [2], the system named is Locomotor Activity in Mice. Put plainly: Inhibition of Locomotor Activity in Mice. The class given is in vivo. Conditions: Mus musculus, IP.
Assay [3] relates to Brain Dopamine Synthesis in Rats. The assay is described as follows: % Reversal of Brain Dopamine Synthesis in Rats. The class given is in vivo. The note with it: Rattus norvegicus, IP.

Each structure is given as a SMILES string. Read-outs that look alike come from different tables or passages of the source.

Consider `C(#Cc1cccs1)CCN1CC=C(c2ccccc2)CC1` [Example 16, 1,2,3,6-Tetrahydro-4-phenyl-1-[4-(2-thienyl)-3-butynyl]pyridine], for which the half-inhibitory concentration (IC50) in assay [1] came to 115 nM. This compound also yielded an ED50 in assay [2] of 7.6 mg/kg.
Regarding `C(#Cc1cnc2ccccc2c1)CCN1CC=C(c2ccccc2)CC1` [Example 1, 3-[4-(3,6-Dihydro-4-phenyl-1(2H)-pyridinyl)-1-butynyl]quinoline], the inhibition in vivo at 10 mg/kg in assay [3] turned out to be 28%. Besides, the IC50 in assay [1] was determined as 41 nM.
Turning to `CN(C)c1ccc(C#CCCN2CC=C(c3ccccc3)CC2)nc1` [Example 13, 6-[4-(3,6-Dihydro-4-phenyl-1(2H)-pyridinyl)-1-butynyl]-N,N-dimethyl-3-pyridinamine], the inhibition in vivo at 10 mg/kg in assay [3] stood at 49%. Further, the IC50 in assay [1] turned out to be 192 nM. In addition, in assay [2], the ED50 was determined as 0.28 mg/kg.
The matching figures for `C(#Cc1cccnc1)CCN1CC=C(c2cccs2)CC1` [Example 3, 3-[4-[3,6-Dihydro-4-(2-thienyl)-1(2H)-pyridinyl]-1-butynyl]pyridine]: 53%, 354 nM and 0.54 mg/kg.
Regarding `CNc1ccc(C#CCCN2CC=C(c3ccccc3)CC2)cn1` [Example 29, 5-[4-(3,6-Dihydro-4-phenyl-1(2H)-pyridinyl)-1-butynyl]-N-methyl-2-pyridinamine], in assay [3], the inhibition in vivo at 10 mg/kg was found to be 42%. The IC50 in assay [1] was found to be 77 nM. The ED50 in assay [2] stood at 6.1 mg/kg.
The matching figures for `C(#Cc1cccnc1)CCN1CC=C(c2ccccc2)CC1` [Example 4, 3-[4-(3,6-Dihydro-4-phenyl-1(2H)-pyridinyl)-1-butynyl]pyridine]: 79%, 50 nM and 0.07 mg/kg.
For `O=[N+]([O-])c1ccc(C#CCCN2CC=C(c3ccccc3)CC2)cc1` [Example 10, 1,2,3,6-Tetrahydro-1-[4-(4-nitrophenyl)-3-butynyl]-4-phenylpyridine], in that order: 42%, 394 nM and 2.6 mg/kg.
For `C(#Cc1cncc2ccccc12)CCN1CC=C(c2ccccc2)CC1` [Example 2, 4-[4-(3,6-Dihydro-4-phenyl-1(2H)-pyridinyl)-1-butynyl]isoquinoline], in that order: 32%, 101 nM and 2.1 mg/kg.
Consider `Nc1ccc(C#CCCN2CC=C(c3ccccc3)CC2)cc1` [Example 20, 4-[4-(3,6-Dihydro-4-phenyl-1(2H)-pyridinyl)-1-butynyl]benzenamine], for which, in assay [3], the inhibition in vivo at 10 mg/kg turned out to be 51%. The IC50 in assay [1] came out at 431 nM. The compound also registered an ED50 in assay [2] of 0.36 mg/kg.
As to `CS(=O)(=O)Nc1ccc(C#CCCN2CC=C(c3ccccc3)CC2)nc1` [Example 32, N-[6-[4-(3,6-Dihydro-4-phenyl-1(2H)-pyridinyl)-1-butynyl]-3-pyridinyl]methanesulfonamide], in assay [1], the IC50 was found to be 64 nM. Moreover, in assay [2], it took a dose of 1.1 mg/kg to reach the 50% effect level (ED50).
As for `Nc1ccc(C#CCCN2CC=C(c3cccs3)CC2)nc1` [Example 12, 6-[4-[3,6-Dihydro-4-(2-thienyl)-1(2H)-pyridinyl]-1-butynyl]-3-pyridinamine], the inhibition in vivo at 10 mg/kg in assay [3] is 46%. In addition, in assay [1], the IC50 is 321 nM. In addition, the ED50 in assay [2] amounted to 0.36 mg/kg.
Regarding `CC(=O)Nc1ccc(C#CCCN2CC=C(c3ccccc3)CC2)cc1` [Example 24, N-[4-[4-(3,6-Dihydro-4-phenyl-1(2H)-pyridinyl)-1-butynyl]phenyl]acetamide], in assay [1], the half-inhibitory concentration (IC50) amounted to 50 nM. The 50% effect level in assay [2] (ED50) was put at a dose of 0.23 mg/kg.
For the compound `O=C(Nc1ccc(C#CCCN2CC=C(c3ccccc3)CC2)nc1)c1cccs1` [Example 23, N-[6-[4-(3,6-Dihydro-4-phenyl-1(2H)-pyridinyl)-1-butynyl]-3-pyridinyl]-2-thiophenecarboxamide], the inhibition in vivo at 10 mg/kg in assay [3] is 0%. The same compound showed a 50% inhibitory concentration (IC50) in assay [1] of 1090 nM. In addition, the median effective dose (ED50) in assay [2] was determined as 1.5 mg/kg.
In turn, `O=[N+]([O-])c1ccc(C#CCCN2CC=C(c3ccccc3)CC2)nc1` [Example 9, 1,2,3,6-Tetrahydro-1-[4-(5-nitro-2-pyridinyl)-3-butynyl]-4-phenylpyridine] returned a half-inhibitory concentration (IC50) in assay [1] of 229 nM. The compound also came in with an ED50 in assay [2] of 6.9 mg/kg.
On to `CNc1ccc(C#CCCN2CC=C(c3ccccc3)CC2)cc1` [Example 27, 4-[4-(3,6-Dihydro-4-phenyl-1(2H)-pyridinyl)-1-butynyl]-N-methylbenzenamine], for which, in assay [3], the inhibition in vivo at 10 mg/kg is 45%. Also, in assay [1], the IC50 worked out at 129 nM. Further, the 50% effective dose (ED50) in assay [2] was 0.56 mg/kg.
In assay [2], `C(#Cc1cnc2ccccc2c1)CCCN1CC=C(c2ccccc2)CC1` [Example 6, 3-[5-(3,6-Dihydro-4-phenyl-1(2H)-pyridinyl)-1-pentynyl]quinoline] gave an ED50 of 3.6 mg/kg.
In the case of `CC(=O)Nc1ccc(C#CCCN2CC=C(c3ccccc3)CC2)nc1` [Example 22, N-[6-[4-(3,6-Dihydro-4-phenyl-1(2H)-pyridinyl)-1-butynyl]-3-pyridinyl]acetamide], the inhibition in vivo at 10 mg/kg in assay [3] was 5%. This compound came in with an IC50 in assay [1] of 70 nM. In assay [2], the ED50 turned out to be 0.07 mg/kg.
For `C(#Cc1ccccn1)CCN1CC=C(c2ccccc2)CC1` [Example 14, 1,2,3,6-Tetrahydro-4-phenyl-1-[4-(2-pyridinyl)-3-butynyl]pyridine], in that order: 23%, 189 nM and 2.1 mg/kg.
In the case of `C(#Cc1cccnc1)CCCN1CC=C(c2ccccc2)CC1` [Example 7, 3-[5-(3,6-Dihydro-4-phenyl-1(2H)-pyridinyl)-1-pentynyl]pyridine], in assay [3], the inhibition in vivo at 10 mg/kg turned out to be 48%. Further, the concentration for half-maximal inhibition (IC50) in assay [1] was 77.2 nM. This compound gave an ED50 in assay [2] of 0.72 mg/kg.
For `Nc1ccc(C#CCCN2CC=C(c3ccccc3)CC2)nc1` [Example 19, 6-[4-(3,6-Dihydro-4-phenyl-1(2H)-pyridinyl)-1-butynyl]-3-pyridinamine], in that order: 59%, 85 nM and 0.15 mg/kg.
Take `C(#Cc1cccnc1)CCCN1CC=C(c2cccs2)CC1` [Example 8, 3-[5-[3,6-Dihydro-4-(2-thienyl)-1(2H)-pyridinyl]-1-pentynyl]pyridine]: in assay [1], the IC50 turned out to be 209 nM. Besides, it took a dose of 2.7 mg/kg to reach the 50% effect level in assay [2] (ED50).
On to `Nc1ccc(C#CCCN2CC=C(c3ccccc3)CC2)cn1` [Example 21, 5-[4-(3,6-Dihydro-4-phenyl-1(2H)-pyridinyl)-1-butynyl]-2-pyridinamine], for which, in assay [3], the inhibition in vivo at 10 mg/kg is 65%. The same compound came in with an IC50 in assay [1] of 25 nM. Moreover, the median effective dose (ED50) in assay [2] stood at 0.07 mg/kg.
For `Nc1ccc(C#CCCN2CC=C(c3ccc(F)cc3)CC2)cn1` [Example 17, 5-[4-[4-(4-Fluorophenyl)-3,6-dihydro-1(2H)-pyridinyl]-1-butynyl]-2-pyridinamine], in that order: 40%, 376 nM and 1.2 mg/kg.
As for `CC(=O)Nc1ccc(C#CCCN2CC=C(c3ccccc3)CC2)cn1` [Example 25, N-[5-[4-(3,6-Dihydro-4-phenyl-1(2H)-pyridinyl)-1-butynyl]-2-pyridinyl]acetamide], the ED50 in assay [2] is 0.16 mg/kg.
Turning to `CNc1ccc(C#CCCN2CC=C(c3ccccc3)CC2)nc1` [Example 26, 6-[4-(3,6-Dihydro-4-phenyl-1(2H)-pyridinyl)-1-butynyl]-N-methyl-3-pyridinamine], in assay [3], the inhibition in vivo at 10 mg/kg came out at 0%. Besides, the 50% inhibitory concentration (IC50) in assay [1] was 138 nM. For the same compound, in assay [2], the median effective dose (ED50) is 0.22 mg/kg.
In the case of `CNc1ccc(C#CCCN2CC=C(c3ccc(F)cc3)CC2)cn1` [Example 28, 5-[4-[4-(9-Fluorophenyl)-3,6-dihydro-1(2H)-pyridinyl]-1-butynyl]-N-methyl-2-pyridinamine], the inhibition in vivo at 10 mg/kg in assay [3] amounted to 57%. The IC50 in assay [1] (read-out: Inhibition of [^3 H]Spiroperidol Binding IC50, [^3 H]spiroperidol radioligand) is 1270 nM. The compound further showed a median effective dose (ED50) in assay [2] of 0.6 mg/kg.
As to `CCCNc1ccc(C#CCCN2CC=C(c3ccccc3)CC2)nc1` [Example 30, 6-[4-(3,6-Dihydro-4-phenyl-1(2H)-pyridinyl)-1-butynyl]-N-propyl-3-pyridinamine], the 50% inhibitory concentration (IC50) in assay [1] was 248 nM. This compound also registered a 50% effective dose (ED50) in assay [2] of 0.31 mg/kg.
As for `C(#Cc1ccncc1)CCN1CC=C(c2ccccc2)CC1` [Example 11, 4-[4-(3,6-Dihydro-4-phenyl-1(2H)-pyridinyl)-1-butynyl]pyridine], the inhibition in vivo at 10 mg/kg in assay [3] amounted to 79%. Moreover, in assay [1], the IC50 came out at 43.4 nM. The compound also gave a median effective dose (ED50) in assay [2] of 0.1 mg/kg.
For `CS(=O)(=O)N(c1ccc(C#CCCN2CC=C(c3ccccc3)CC2)nc1)S(C)(=O)=O` [Example 31, N-(Methylsulfonyl)-N-[6-[4-(3,6-dihydro-4-phenyl-1(2H)-pyridinyl)-1-butynyl]-3-pyridinyl]methanesulfonamide], in that order: 0%, 94 nM and 0.53 mg/kg.
Take `C(#Cc1ccc2[nH]ccc2c1)CCN1CC=C(c2ccccc2)CC1` [Example 15, 5-[4-(3,6-Dihydro-4-phenyl-1(2H)-pyridinyl)-1-butynyl]-1H-indole]: in assay [1], the half-maximal inhibitory concentration (IC50) amounted to 78 nM. The median effective dose (ED50) in assay [2] is 1 mg/kg.
